# Residues, ends and D or L forms follow the SMILES beside them. *: point of attachment. Cbz = O=C(OCc1ccccc1)*; NHOH = ON*
# Tested on: type IV collagenases
# Test: not given
# Settings: cited from earlier work
row,SMILES,inhibitor relatively specific to type IV collagenases
1,CNC(=O)[C@H](Cc1ccc(OC)cc1)NC(=O)[C@@H](CC(=O)NO)CC(C)C [SC 44463],inhibitor relatively specific to type IV collagenases

# Tested on: collagenase
# Test: not given
# Settings: cited from earlier work
row,SMILES,collagenase inhibiting activity
1,CC(C)C[C@H](NC(=O)[C@@H]1CCCN1C(=O)OCc1ccccc1)C(=O)NCC(=O)NO [benzyloxycarbonyl propyl-leucyl-glycylhydroxamic acid] (Cbz-Pro-Leu-Gly-{NHOH}),showing collagenase inhibiting effects
2,CCCCCC(CC(=O)NO)C(=O)N1NCCCC1C(=O)NC(CC(C)C)C(C)=O (stereo not drawn),collagenase inhibiting activities

# Tested on: aminopeptidase M
# Test: not given
# Settings: low concentrations; cited from earlier work
row,SMILES,inhibition of aminopeptidase M
1,CCCCC[C@H](CC(=O)NO)C(=O)N[C@H](C(=O)N1CCC[C@H]1CO)C(C)C [actinonin],inhibit aminopeptidase M at low concentrations

# Tested on: cancer metastasis
# Test: not given
# Settings: animal experiment; cited from earlier work
row,SMILES,inhibitory activity on cancer metastasis
1,CNC(=O)[C@H](Cc1ccc(OC)cc1)NC(=O)[C@@H](CC(=O)NO)CC(C)C [SC 44463],confirmed to exhibit an inhibitory activity on cancer metastasis

# Tested on: bacteria
# Test: not given
# Settings: cited from earlier work
row,SMILES,antibacterial activity
1,CCCCCC(CC(=O)NO)C(=O)N1NCCCC1C(=O)NC(CC(C)C)C(C)=O (stereo not drawn),antibacterial
2,CCCCCC(CC(=O)NO)C(=O)N1NCCCC1C(=O)NC(C(=O)CC)C(C)CC (stereo not drawn),antibacterial activity

# Target: T1, type IV collagenases (Homo sapiens, UniProt P08253)
# T1 construct: type IV collagenases prepared from a serum-free culture medium of human melanoma cells; endogenous in cells
# T1 sequence (P08253 110-660): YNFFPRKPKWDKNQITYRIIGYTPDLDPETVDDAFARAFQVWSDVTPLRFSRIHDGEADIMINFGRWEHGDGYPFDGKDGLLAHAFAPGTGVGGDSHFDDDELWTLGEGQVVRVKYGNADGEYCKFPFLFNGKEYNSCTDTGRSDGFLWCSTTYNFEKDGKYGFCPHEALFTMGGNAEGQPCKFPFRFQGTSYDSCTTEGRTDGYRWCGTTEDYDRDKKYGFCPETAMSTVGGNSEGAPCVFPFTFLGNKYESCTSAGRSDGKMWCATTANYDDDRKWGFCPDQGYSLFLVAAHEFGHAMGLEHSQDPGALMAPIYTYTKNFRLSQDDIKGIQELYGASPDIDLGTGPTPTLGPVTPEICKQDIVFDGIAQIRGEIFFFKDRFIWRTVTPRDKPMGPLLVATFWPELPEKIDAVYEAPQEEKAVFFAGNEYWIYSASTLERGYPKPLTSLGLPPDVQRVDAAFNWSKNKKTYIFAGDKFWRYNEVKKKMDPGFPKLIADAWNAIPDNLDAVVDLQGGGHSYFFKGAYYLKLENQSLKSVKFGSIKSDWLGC
# Test: Inhibitory activity on type IV collagenases: cleavage of radio-labelled type IV collagen
# Assay type: biochemical
# Settings: type IV collagenases from serum-free culture medium of human melanoma cells; radio-labelled type IV collagen from mouse EHS tumor as substrate
# Description: The activity of type IV collagenase was assayed according to the method of Salo et al. [J. Biol. Chem., Vol. 258, 3058-3063 (1983)].
# In detail, the activity was assayed by measuring the cleavage of collagen by using type IV collagenases prepared from a serum-free culture medium of human melanoma cells, and type IV collagen prepared from mouse EHS tumor radio-labelled as a substrate.
# The inhibitory activity on type IV collagenases was measured by calculating the inhibition percent of the enzyme reaction, in which the test samples were added to the reaction mixture.
# The results (expressed as I50) is shown below.
row,SMILES,IC50 [nM]
1,CCCCC[C@H](CC(=O)NO)C(=O)N1NCCC[C@H]1C(=O)N[C@H](C(=O)OC(C)(C)C)C(C)C [Example 5],360
2,"CCCCCCC[C@H](CC(=O)NO)C(=O)N1NCCC[C@H]1C(=O)N(C)C [Example 17, N^2-[2-(R)-(Hydroxyaminocarbonyl)methyl-1-oxononyl]-(S)-piperazic acid N,N-dimethylamide]",270
3,"CNC(=O)[C@@H]1CCCNN1C(=O)[C@H](CCc1ccccc1)CC(=O)NO [Example 20, N^2-[2-(R)-(Hydroxyaminocarbonyl)methyl-1-oxo-4-phenylbutyl]-(S)-piperazic acid N-methylamide]",73
4,"CCCCCCCCCC[C@H](CC(=O)NO)C(=O)N1NCCC[C@H]1C(=O)NC [Example 18, N^2-[2-(R)-(Hydroxyaminocarbonyl)methyl-1-oxododecyl]-(S)-piperazic acid N-methylamide]",27
5,"CCCCC[C@H](CC(=O)NO)C(=O)N1NCCC[C@H]1C(=O)N[C@H](C(=O)OC)C(C)C [Example 4, Methyl 2-(S)-[N^2-[2-(R)-(Hydroxyaminocarbonyl)methyl-1-oxoheptyl]-(S)-piperazyl]aminoisovalerate]",350
6,"CCCCCC[C@H](CC(=O)NO)C(=O)N1NCCC[C@H]1C(=O)NC [Example 14, N^2-[2-(R)-(Hydroxyaminocarbonyl)methyl-1-oxooctyl]-(S)-piperazic acid N-methylamide]",82
7,"CN(C)C(=O)[C@@H]1CCCNN1C(=O)[C@H](CCc1ccccc1)CC(=O)NO [Example 21, N^2-[2-(R)-(Hydroxyaminocarbonyl)methyl-1-oxo-4-phenylbutyl]-(S)-piperazic acid N,N-dimethylamide]",280
8,"CCCCC[C@H](CC(=O)NO)C(=O)N1NCCC[C@H]1C(=O)N[C@H](C(=O)N(C)OC)C(C)C [Example 3, 2-(S)-[N^2-[2-(R)-(Hydroxyaminocarbonyl)methyl-1-oxoheptyl]-(S)-piperazyl]aminoisovaleric acid N-methyl-N-methoxyamide]",330
9,"CCCCC[C@H](CC(=O)NO)C(=O)N1NCCC[C@H]1C(=O)NCC [Example 27, N^2-[2-(R)-(Hydroxyaminocarbonyl)methyl-1-oxoheptyl]-(S)-piperazic acid N-ethylamide]",160
10,"CCCCCCCCCC[C@H](CC(=O)NO)C(=O)N1NCCC[C@H]1C(=O)N(C)C [Example 19, N^2-[2-(R)-(Hydroxyaminocarbonyl)methyl-1-oxododecyl]-(S)-piperazic acid N,N-dimethylamide]",80
11,"CCCCCCC[C@H](CC(=O)NO)C(=O)N1NCCC[C@H]1C(=O)NC [Example 16, N^2-[2-(R)-(Hydroxyaminocarbonyl)methyl-1-oxononyl]-(S)-piperazic acid N-methylamide]",42

# Next, values leading:
row,IC50 [nM],SMILES
1,4300,"CCCCC[C@H](CC(=O)NO)C(=O)N1NCCC[C@H]1C(=O)N[C@@H](C(=O)CC)[C@H](C)CC [Example 109, N^2-[2-(R)-(Hydroxyaminocarbonyl)methyl-1-oxoheptyl]-(S)-piperazic acid (4R,5R)-5-methyl-3-oxoheptan-4-ylamide, reference compound]"
2,37,"CCCCCCCC[C@H](CC(=O)NO)C(=O)N1NCCC[C@H]1C(=O)NCC [Example 34, N^2-[2-(R)-(Hydroxyaminocarbonyl)methyl-1-oxodecyl]-(S)-piperazic acid N-ethylamide]"
3,18500,"CCCCC[C@H](CC(=O)NO)C(=O)N1NCCC[C@@H]1C(=O)N[C@H](C(=O)CC)[C@@H](C)CC [Example 110, N^2-[2-(R)-(Hydroxyaminocarbonyl)methyl-1-oxoheptyl]-(R)-piperazic acid (4S,5S)-methyl-3-oxoheptan-4-ylamide, reference compound]"
4,750,"CC(C)C[C@H](CC(=O)NO)C(=O)N1NCCC[C@H]1C(=O)N(C)C [Example 32, N^2-[2-(R)-(Hydroxyaminocarbonyl)methyl-1-oxo-4-methyl-pentyl]-(S)-piperazic acid N,N-dimethylamide]"
5,250,"CCCCC[C@H](CC(=O)NO)C(=O)N1NCCC[C@H]1C(N)=O [Example 29, N^2-[2-(R)-(Hydroxyaminocarbonyl)methyl-1-oxoheptyl]-(S)-piperazylamide]"
6,200,"CCCCCCCC[C@H](CC(=O)NO)C(=O)N1NCCC[C@H]1C(=O)N(CC)CC [Example 35, N^2-[2-(R)-(Hydroxyaminocarbonyl)methyl-1-oxodecyl]-(S)-piperazic acid N,N-diethylamide]"
7,1400,"CCCCC[C@H](CC(=O)NO)C(=O)N1NCCC[C@H]1C(=O)N[C@H](C(=O)CC)[C@@H](C)CC [Example 108, reference compound]"
8,64,"CCCCCCCC[C@H](CC(=O)NO)C(=O)N1NCCC[C@H]1C(=O)N(C)C [Example 33, N^2-[2-(R)-(Hydroxyaminocarbonyl)methyl-1-oxodecyl]-(S)-piperazic acid N,N-dimethylamide]"
9,240,"CCCCC[C@H](CC(=O)NO)C(=O)N1NCCC[C@H]1C(=O)NCC(C)C [Example 30, N^2-[2-(R)-(Hydroxyaminocarbonyl)methyl-1-oxoheptyl]-(S)-piperazic acid N-isobutylamide]"
